According to US12655156B2, “Oxadiazolopyrazines and oxadiazolopyridines useful as mitochondrial uncouplers” (Virginia Tech Intellectual Properties, Inc., priority 2018, dated 2026):

Each compound was assayed on whole cells (NMuLi, C2C12, and L6 cells, isolated cardiomyocytes, human primary fibroblasts) (assay: Oxygen consumption rate (OCR) in whole cells, Seahorse XF-24 Flux Analyzer). Settings: increase in OCR; binned EC50 values.
Assay type: cell-based
Procedure: Biological activities of the compounds synthesized is determined by determining increase in oxygen consumption rate (OCR).
Oxygen consumption rate (OCR) in whole cells is measured in general accordance with the method of Kenwood B M et al. (Mol. Met. (2014) 3:114-123).
OCR is measured using a Seahorse XF-24 Flux Analyzer (Seahorse Biosciences, North Billerica, MA). NMuLi, C2C12, and L6 cells are seeded in a Seahorse 24-well tissue culture plate at a density of 3.5×10^4 cells/well, isolated cardiomyocytes at a density of 4×10^4 cells/well, and human primary fibroblasts at a density of 1.1×10^4 cells/well. The cells are then allowed to adhere for 24 h. Prior to the assay, the media is changed to unbuffered DMEM containing pyruvate and glutamine (Gibco #12800-017, pH=7.4 at 37° C.) and the cells are equilibrated for 30 mins at 37°° C. Compounds are injected during the assay and OCR is measured using 2 min measurement periods.
2-3 wells are used per condition and averaged over three plates (n=6-9). Statistical significance is determined by two-way ANOVA with Bonferroni's posttest.
Activities are reported as binned EC50 values: A=5 μM or less; B=>5 to 20 μM; C=over 20 μM; NA=not active.

SMILES	EC50 [µM]
Oc1nc2nonc2nc1Nc1ccc(OC(F)(F)F)cc1Cl [1-41, 6-((2-Chloro-4-(trifluoromethoxy)phenyl)amino)-[1,2,5]oxadiazolo[3,4-b]pyrazin-5-ol]	≤ 5
Oc1nc2nonc2nc1Nc1ccc(C(F)(F)F)c(F)c1 [1-42, 6-((3-Fluoro-4-(trifluoromethyl)phenyl)amino)-[1,2,5]oxadiazolo[3,4-b]pyrazin-5-ol]	5 to 20
Oc1nc2nonc2nc1Nc1ccc(Br)cc1F [1-43, 6-((4-Bromo-2-fluorophenyl)amino)-[1,2,5]oxadiazolo[3,4-b]pyrazin-5-ol]	≤ 5
Oc1nc2nonc2nc1Nc1ccc2ccccc2c1 [1-44, 6-(Naphthalen-2-ylamino)-[1,2,5]oxadiazolo[3,4-b]pyrazin-5-ol]	≤ 5
CCc1cccc(Nc2nc3nonc3nc2O)c1 [1-46, 6-((3-Ethylphenyl)amino)-[1,2,5]oxadiazolo[3,4-b]pyrazin-5-ol]	5 to 20
CC(=O)c1ccc(Nc2nc3nonc3nc2O)cc1 [1-47, 1-(4-((6-Hydroxy-[1,2,5]oxadiazolo[3,4-b]pyrazin-5-yl)amino)phenyl)ethan-1-one]	> 20
Oc1nc2nonc2nc1Nc1cccc2ccccc12 [1-50, 6-(Naphthalen-1-ylamino)-[1,2,5]oxadiazolo[3,4-b]pyrazin-5-ol]	5 to 20
CC(C)(C)c1ccc(Nc2nc3nonc3nc2O)cc1 [1-51, 6-((4-(tert-Butyl)phenyl)amino)-[1,2,5]oxadiazolo[3,4-b]pyrazin-5-ol]	≤ 5
Oc1nc2nonc2nc1Nc1ccccc1 [1-52, 6-(Phenylamino)-[1,2,5]oxadiazolo[3,4-b]pyrazin-5-ol]	> 20
CC(C)(C)c1cccc(Nc2nc3nonc3nc2O)c1 [1-53, 6-((3-(tert-Butyl)phenyl)amino)-[1,2,5]oxadiazolo[3,4-b]pyrazin-5-ol]	≤ 5
CCCCc1ccc(Nc2nc3nonc3nc2O)cc1 [1-54, 6-((4-Butylphenyl)amino)-[1,2,5]oxadiazolo[3,4-b]pyrazin-5-ol]	≤ 5
CCCCc1ccc(Nc2nc3nonc3nc2O)c(F)c1 [1-55, 6-((4-Butyl-2-fluorophenyl)amino)-[1,2,5]oxadiazolo[3,4-b]pyrazin-5-ol]	≤ 5
Cc1cccc(C)c1Nc1nc2nonc2nc1O [1-56, 6-((2,6-Dimethylphenyl)amino)-[1,2,5]oxadiazolo[3,4-b]pyrazin-5-ol]	≤ 5
Cc1ccc(Nc2nc3nonc3nc2O)cc1 [1-58, 6-(p-Tolylamino)-[1,2,5]oxadiazolo[3,4-b]pyrazin-5-ol]	> 20
Cc1ccc(Nc2nc3nonc3nc2O)cc1C [1-60, 6-((3,4-Dimethylphenyl)amino)-[1,2,5]oxadiazolo[3,4-b]pyrazin-5-ol]	5 to 20
CCc1ccc(Nc2nc3nonc3nc2O)cc1 [1-61, 6-((4-Ethylphenyl)amino)-[1,2,5]oxadiazolo[3,4-b]pyrazin-5-ol]	5 to 20
CCCC#Cc1ccc(Nc2nc3nonc3nc2O)c(F)c1 [1-62, 6-((2-Fluoro-4-(pent-1-yn-1-yl)phenyl)amino)-[1,2,5]oxadiazolo[3,4-b]pyrazin-5-ol]	≤ 5
CCCCC#Cc1ccc(Nc2nc3nonc3nc2O)c(F)c1 [1-63, 6-((2-Fluoro-4-(hex-1-yn-1-yl)phenyl)amino)-[1,2,5]oxadiazolo[3,4-b]pyrazin-5-ol]	≤ 5
CCCC#Cc1ccc(Nc2nc3nonc3nc2O)c(OC(F)(F)F)c1 [1-64, 6-((4-(Pent-1-yn-1-yl)-2-(trifluoromethoxy)phenyl)amino)-[1,2,5]oxadiazolo[3,4-b]pyrazin-5-ol]	≤ 5
CCCCC#Cc1ccc(Nc2nc3nonc3nc2O)c(OC(F)(F)F)c1 [1-65, 6-((4-(Hex-1-yn-1-yl)-2-(trifluoromethoxy)phenyl)amino)-[1,2,5]oxadiazolo[3,4-b]pyrazin-5-ol]	5 to 20
CCCCCc1ccc(Nc2nc3nonc3nc2O)c(F)c1 [1-66, 6-((2-Fluoro-4-pentylphenyl)amino)-[1,2,5]oxadiazolo[3,4-b]pyrazin-5-ol]	≤ 5
CCCCCCc1ccc(Nc2nc3nonc3nc2O)c(F)c1 [1-67, 6-((2-Fluoro-4-hexylphenyl)amino)-[1,2,5]oxadiazolo[3,4-b]pyrazin-5-ol]	≤ 5
CCc1ccc(Nc2nc3nonc3nc2O)c(F)c1 [1-68, 6-((4-ethyl-2-fluorophenyl)amino)-[1,2,5]oxadiazolo[3,4-b]pyrazin-5-ol]	5 to 20
CCCCCc1ccc(Nc2nc3nonc3nc2O)c(OC(F)(F)F)c1 [1-69, 6-((4-Pentyl-2-(trifluoromethoxy)phenyl)amino)-[1,2,5]oxadiazolo[3,4-b]pyrazin-5-ol]	≤ 5

SMILES	EC50 [µM]
CCCCCCc1ccc(Nc2nc3nonc3nc2O)c(OC(F)(F)F)c1 [1-70, 6-((4-hexyl-2-(trifluoromethoxy)phenyl)amino)-[1,2,5]oxadiazolo[3,4-b]pyrazin-5-ol]	5 to 20
CCCCCc1ccc(Nc2nc3nonc3nc2O)cc1 [1-71, 6-((4-pentylphenyl)amino)-[1,2,5]oxadiazolo[3,4-b]pyrazin-5-ol]	> 20
CCCCCCc1ccc(Nc2nc3nonc3nc2O)cc1 [1-72, 6-((4-hexylphenyl)amino)-[1,2,5]oxadiazolo[3,4-b]pyrazin-5-ol]	5 to 20
CCCCCCCCNc1nc2nonc2nc1O [1-74, 6-(octylamino)-[1,2,5]oxadiazolo[3,4-b]pyrazin-5-ol]	≤ 5
Oc1nc2nonc2nc1NCc1ccc(Br)cc1 [1-77, 6-((4-bromobenzyl)amino)-[1,2,5]oxadiazolo[3,4-b]pyrazin-5-ol]	> 20
Cc1ccc(CNc2nc3nonc3nc2O)cc1 [1-78, 6-((4-methylbenzyl)amino)-[1,2,5]oxadiazolo[3,4-b]pyrazin-5-ol]	> 20
Oc1nc2nonc2nc1NC(c1ccccc1)c1ccccc1 [1-79, 6-(benzhydrylamino)-[1,2,5]oxadiazolo[3,4-b]pyrazin-5-ol]	> 20
Oc1nc2nonc2nc1NCc1ccc(OC(F)(F)F)cc1 [1-80, 6-((4-(trifluoromethoxy)benzyl)amino)-[1,2,5]oxadiazolo[3,4-b]pyrazin-5-ol]	> 20
Oc1nc2nonc2nc1NC12CC3CC(CC(C3)C1)C2 [1-81, 6-(((3S,5S,7S)-adamantan-1-yl)amino)-[1,2,5]oxadiazolo[3,4-b]pyrazin-5-ol]	5 to 20
CC12CC3CC(C)(C1)CC(Nc1nc4nonc4nc1O)(C3)C2 [1-82, 6-(((1R,3R,5S,7R)-3,5-dimethyladamantan-1-yl)amino)-[1,2,5]oxadiazolo[3,4-b]pyrazin-5-ol]	≤ 5
CC(Nc1nc2nonc2nc1O)C12CC3CC(CC(C3)C1)C2 [1-83, 6-((1-((1S,3S)-adamantan-1-yl)ethyl)amino)-[1,2,5]oxadiazolo[3,4-b]pyrazin-5-ol]	5 to 20
Oc1nc2nonc2nc1NC1C2CC3CC(C2)CC1C3 [1-85, 6-(((1R,3R,5R,7R)-adamantan-2-yl)amino)-[1,2,5]oxadiazolo[3,4-b]pyrazin-5-ol]	> 20
Oc1nc2nonc2nc1Nc1ccc(OCc2ccccc2)cc1 [1-86, 6-((4-(benzyloxy)phenyl)amino)-[1,2,5]oxadiazolo[3,4-b]pyrazin-5-ol]	≤ 5
Oc1nc2nonc2nc1Nc1ccc2c(c1)OCO2 [1-87, 6-(benzo[d][1,3]dioxol-5-ylamino)-[1,2,5]oxadiazolo[3,4-b]pyrazin-5-ol]	> 20
Oc1nc2nonc2nc1Nc1ccc(OCC(F)(F)F)cc1 [1-88, 6-((4-(2,2,2-Trifluoroethoxy)phenyl)amino)-[1,2,5]oxadiazolo[3,4-b]pyrazin-5-ol]	> 20
Cc1cc(Nc2nc3nonc3nc2O)ccc1OCC(F)(F)F [1-89, 6-((3-Methyl-4-(2,2,2-trifluoroethoxy)phenyl)amino)-[1,2,5]oxadiazolo[3,4-b]pyrazin-5-ol]	5 to 20
Oc1nc2nonc2nc1Nc1ccc(OCC(F)(F)F)c(F)c1 [1-90, 6-((3-Fluoro-4-(2,2,2-trifluoroethoxy)phenyl)amino)-[1,2,5]oxadiazolo[3,4-b]pyrazin-5-ol]	5 to 20
Oc1nc2nonc2nc1Nc1ccc(OCC(F)(F)F)c(C(F)(F)F)c1 [1-91, 6-((4-(2,2,2-Trifluoroethoxy)-3-(trifluoromethyl)phenyl)amino)-[1,2,5]oxadiazolo[3,4-b]pyrazin-5-ol]	5 to 20
Oc1nc2nonc2nc1Nc1ccc(OCC2CC2)c(C(F)(F)F)c1 [1-92, 6-((4-(cyclopropylmethoxy)-3-(trifluoromethyl)phenyl)amino)-[1,2,5]oxadiazolo[3,4-b]pyrazin-5-ol]	≤ 5
Oc1nc2nonc2nc1Nc1ccc2c(c1)OC(F)(F)O2 [1-93, 6-((2,2-difluorobenzo[d][1,3]dioxol-5-yl)amino)-[1,2,5]oxadiazolo[3,4-b]pyrazin-5-ol]	5 to 20
COc1ccccc1Nc1nc2nonc2nc1O [1-94, 6-((2-methoxyphenyl)amino)-[1,2,5]oxadiazolo[3,4-b]pyrazin-5-ol]	> 20
CCCCOc1ccc(Nc2nc3nonc3nc2O)cc1 [1-95, 6-((4-butoxyphenyl)amino)-[1,2,5]oxadiazolo[3,4-b]pyrazin-5-ol]	≤ 5
CCCCOc1cccc(Nc2nc3nonc3nc2O)c1 [1-96, 6-((3-butoxyphenyl)amino)-[1,2,5]oxadiazolo[3,4-b]pyrazin-5-ol]	≤ 5
